Measurements as given in ChEMBL document CHEMBL2375272, “Identification of RC-33 as a potent and selective σ1 receptor agonist potentiating NGF-induced neurite outgrowth in PC12 cells. Part 2: g-scale synthesis, physicochemical characterization and in vitro metabolic stability” (Bioorg Med Chem, 2013).

What was measured:
[1] = Half life in human liver S9 fraction by UPLC-UV-PAD method in presence of NADPH; assay type: ADME, subcellular
[2] = Half life in rat liver S9 fraction by UPLC-UV-PAD method in presence of NADPH; assay type: ADME, subcellular
[3] = Drug metabolism in human liver S9 fraction assessed as oxidative metabolism after 4 hrs by UPLC-UV-PAD method in presence of NADPH; assay type: ADME, subcellular; conditions: read-out: Drug metabolism
[4] = Drug metabolism in rat liver S9 fraction assessed as oxidative metabolism after 4 hrs by UPLC-UV-PAD method in presence of NADPH; assay type: ADME, subcellular; conditions: read-out: Drug metabolism
[5] = Drug metabolism in human liver S9 fraction assessed as non-oxidative metabolism after 4 hrs by UPLC-UV-PAD method; assay type: ADME, subcellular; conditions: read-out: Drug metabolism
[6] = Drug metabolism in rat liver S9 fraction assessed as non-oxidative metabolism after 4 hrs by UPLC-UV-PAD method; assay type: ADME, subcellular; conditions: read-out: Drug metabolism
[7] = Drug metabolism in dog plasma after 4 hrs by UPLC-UV/PAD method; assay type: ADME, cell-free, Canis lupus familiaris; conditions: read-out: Drug metabolism
[8] = Drug metabolism in human plasma after 4 hrs by UPLC-UV/PAD method; assay type: ADME, cell-free; conditions: read-out: Drug metabolism
[9] = Drug metabolism in rat plasma after 4 hrs by UPLC-UV/PAD method; assay type: ADME, cell-free; conditions: read-out: Drug metabolism
Blood [10] = test: Metabolic stability in rat blood after 4 hrs by UPLC-UV/PAD method; assay type: ADME, tissue-based
Blood [11] = test: Metabolic stability in mouse blood after 4 hrs by UPLC-UV/PAD method; assay type: ADME, tissue-based
[12] = Solubility of the compound in physiological solution by UV spectrophotometric analysis; assay type: physicochemical
[13] = Solubility of the compound in phosphate buffer at pH 7.4 by UV spectrophotometric analysis; assay type: physicochemical
[14] = Solubility of the compound in water by UV spectrophotometric analysis; assay type: physicochemical

SMILES: CC(CCN1CCCCC1)c1ccc(-c2ccccc2)cc1.Cl (racemic)
- half-life [1]: 130 min
- half-life [2]: 114 min
- metabolised at 4 h [3]: 69%
- metabolised at 4 h [4]: 65%
- metabolised at 4 h [5]: 30%
- metabolised at 4 h [6]: 30%
- metabolised at 4 h [7]: 25%
- metabolised at 4 h [8]: 6%
- metabolised at 4 h [9]: 6%
- Stability (Blood [10]): Stable
- Stability (Blood [11]): Stable
- solubility [12]: 8000 µg/mL
- solubility [13]: 32 mg/mL
- solubility [14]: 33 mg/mL
